Data published in patent publication US20230049115A1, “SYSTEM AND METHOD FOR TARGET THERMAL ANALYSIS IN COMPLEX FLUIDS” (Portland State University, priority 2021, published 2023).
Several values for one entry are separate records, joined by “and”; a condition that tells them apart may be missing. Identical values can stand only once.

Key:
[1] = DSC melting temperature of pure proteins and DNA hairpin in standard buffer (Example 2); format: physicochemical; details: standard buffer pH=7.4, independent of concentration
Method: Chemicals and reagents: Standard buffer for all experiments contained 150 mM NaCl, 10 mM potassium phosphate, 15 mM sodium citrate adjusted to pH=7.4 with hydrochloric acid. Pure Proteins: Human Serum Albumin (HSA) (≥99% pure, Lot number: SLBT8667) and lysozyme (recombinant, expressed in rice, Lot number: SLCH2681). The above proteins were prepared in standard buffer and stored at 4° C. for at least 24 hours before use. Concentrations of HSA and lysozyme were confirmed spectrophotometrically at A280.
DNA: The DNA was a 20-base pair hairpin purchased from IDT and received following a standard desalting routine. […] Lyophilized DNA was resuspended in standard buffer and stored at 4° C. DNA concentration matched the manufacturer specification as determined spectrophotometrically at A260.
DSC Measurements: DSC melting experiments were made using a CSC differential scanning microcalorimeter (now T.A. instruments, New Castle, Del.). […]
Baselines of the raw ΔCp or μcal versus temperature thermograms were determined using a four-point polynomial fit, over the temperature range of the transition, consistent with previous methods (Eskew et al., Anal Biochem 2021, 612:113843; Koslen et al., Adv in Biol Chem 2019, 9; Eskew et al., Anal Biochem 2021, 628:114293). […]

[2] = biological target: T1, streptavidin (Streptomyces avidinii, UniProt P22629); experiment: DSC thermogram shift on streptavidin-biotin binding, in buffer and in reconstituted E. coli lysate; details: for Streptavidin + Biotin Tm: 2 molar equivalents of biotin
T1 construct: purchased Alfa Aesar
T1 sequence (P22629 25-183): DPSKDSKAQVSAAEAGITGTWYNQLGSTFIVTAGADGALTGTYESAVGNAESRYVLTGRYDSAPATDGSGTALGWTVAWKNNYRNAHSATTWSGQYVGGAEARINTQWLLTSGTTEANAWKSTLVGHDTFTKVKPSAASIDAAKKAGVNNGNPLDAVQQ
Method: (§1) Preparation of Samples for DSC Measurements: E. coli lysate was prepared by resuspending powdered lysate in standard PBS buffer to make a 2.7 mg/mL lysate solution. The HEK923 cell lysate was the supernatant after initial centrifugation of the crude cell lysate and received in liquid form at unknown concentration. […] Streptavidin, captopril, lisinopril, and biotin were prepared in standard buffer. All samples were incubated for 24 hours at 4° C.
(§2) DSC Measurements: DSC melting experiments were made using a CSC differential scanning microcalorimeter (now T.A. instruments, New Castle, Del.). Samples were prepared by adding specific reaction components to pre-prepared media. For DSC melting experiments, the sample heating rate was approximately 1° C./min while monitoring changes in the excess heat (microwatts) of the sample versus temperature. […] Since all experiments involved investigating interactions of ligands with proteins using DSC, we were interested in testing the sensitivity or our approach to detect proteins and protein/ligand interactions in the background solution comprised of the crude cell lysate. Consequently, all DSC measurements were made on samples in the lysate media, E. coli lysate or HEK923 supernatant, where samples were prepared. Thermograms were acquired for the complex media background, several proteins, and mixtures of these proteins with ligands, i.e. drugs or other another protein.
(§3) Data Reduction and Analysis: Where the protein concentration was known, further refinement and normalization of the data provided the familiar DSC melting curve in the form of a plot of excess heat capacity, ΔCP, of the sample as a function of increasing temperature. Plots of ΔCP versus temperature are commonly termed DSC thermograms. In this case, the enthalpy of the transition can be estimated from the integrated area under the thermogram. These enthalpies can be used to gain valuable insight into protein structural stability (Eskew et al., Anal Biochem 2021, 612:113843). […] For these measurements, meaningful transition enthalpies cannot be determined.
(§4) Baselines of the raw ΔCP or μW versus temperature thermograms for E. coli were determined using a three point polynomial fit, over the temperature range of the transition, which produced a nearly straight line from 40° C. to 110° C. Baselines of the raw ΔCP or μW versus temperature thermograms for HEK293 samples were determined by connecting a straight line between data points at 40° C. and 100° C. This baseline was then subtracted from the raw curves, producing baseline corrected thermograms used for further comparisons and analysis. Between initial and final temperatures, ΔCp, for proteins is known to vary from 7-10 kcal/mol·K (Watanabe et al., Pharm Res. 2001, 18:1775-1781; Shrake et al., Vox sanguinis 1984, 47:7-18). Baseline choices served to effectively remove this difference (Eskew et al., Anal Biochem 2021, 612:113843; Lang et al., Biotechnology Progress 2015, 31:62-69). […] For all experiments thermograms of the media alone served as the background that was subtracted from thermograms of samples containing drugs and/or proteins in the same media. These difference thermograms provided enhanced visualization of sample-specific changes, corresponding predominantly to the ligand/protein interactions of concern.
Streptavidin-Biotin: Initial investigations explored streptavidin-biotin binding in reconstituted E. coli lysate. Binding behavior was examined under several conditions meant to mimic what might be encountered in an actual expression system. FIGS. 4A-4D and 5A-5D present results of this initial study. The thermogram of the E. coli lysate alone served as the background against which streptavidin-biotin binding was examined. Along with that of the media (alone) thermograms for lysate solutions containing streptavidin in different amounts, and streptavidin plus two molar equivalents of biotin in the background media solution are also shown in FIGS. 4A-4D. […]

[3] = biological target: T2, unpurified angiotensin converting enzyme 2 (ACE2) expressed in human embryonic kidney cells (HEK293) (Homo sapiens, UniProt Q9BYF1); format: binding
T2 construct: the expressed region for the purchased ACE2 was from Gln18-Ser740; His-tag; purchased RayBiotech Lot number: 02U2802LL; host or cells: HEK293
T2 sequence (Q9BYF1 18-740): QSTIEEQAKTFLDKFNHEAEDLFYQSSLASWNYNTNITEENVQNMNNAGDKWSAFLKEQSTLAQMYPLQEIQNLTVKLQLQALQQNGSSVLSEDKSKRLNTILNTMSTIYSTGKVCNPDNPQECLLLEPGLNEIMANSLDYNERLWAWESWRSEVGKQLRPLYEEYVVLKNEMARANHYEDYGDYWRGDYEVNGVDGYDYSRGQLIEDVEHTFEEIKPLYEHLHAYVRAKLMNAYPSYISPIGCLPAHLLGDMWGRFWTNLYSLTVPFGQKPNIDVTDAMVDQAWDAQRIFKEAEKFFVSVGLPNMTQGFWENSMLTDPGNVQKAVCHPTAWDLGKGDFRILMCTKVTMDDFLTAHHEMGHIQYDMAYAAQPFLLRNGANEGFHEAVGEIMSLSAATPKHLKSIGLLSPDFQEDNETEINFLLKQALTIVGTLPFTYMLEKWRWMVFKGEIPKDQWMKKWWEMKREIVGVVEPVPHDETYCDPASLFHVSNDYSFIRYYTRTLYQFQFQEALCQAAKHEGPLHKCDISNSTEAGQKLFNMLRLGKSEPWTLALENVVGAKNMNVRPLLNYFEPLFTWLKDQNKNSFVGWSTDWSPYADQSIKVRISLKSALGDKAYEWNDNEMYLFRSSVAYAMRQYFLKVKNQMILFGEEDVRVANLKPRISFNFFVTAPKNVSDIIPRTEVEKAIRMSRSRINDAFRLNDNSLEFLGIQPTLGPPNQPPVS

[4] = system: ACE2; details: previous molecular docking studies; cited from earlier work
[5] = system: COVID-19; details: cited from earlier work
[6] = DSC thermogram of the protein alone (Example 1: buffer, E. coli lysate or HEK293 supernatant background subtracted); format: physicochemical
Method: as §1, §2, §3, §4
The thermogram measured for the supernatant, without ACE2 present, served as the background against which comparisons were made. […] These curves have similar shapes but there is a clear difference for the thermogram of the supernatant containing ACE2. To isolate and enhance the specific contributions to the thermogram of ACE2 protein, the background thermogram for the supernatant alone was subtracted from that for ACE2 in the supernatant. […] This observation is in precise agreement with published results of DSC measurements on unmodified ACE2, that also found two peaks at precisely the same temperatures (Voronov et al., FEBS Letters 2002, 522:77-82). […]

[7] = 1 mg/mL Streptavidin (33%, Condition-II), E. coli lysate
[8] = 1 mg/mL Streptavidin (control), in buffer
[9] = 2 mg/mL Streptavidin (11%, Condition-III), E. coli lysate
[10] = 2 mg/mL Streptavidin (33%, Condition-I), E. coli lysate
[11] = Conditions-I and II, difference thermograms FIGS. 5A and 5B
[12] = unpurified ACE2 in HEK293 supernatant, background subtracted (FIG. 6B)

Work on “5′-CGGGCGCGTTTTCGCGCCCG-3′ (DNA CGGGCGCGTTTTCGCGCCCG; DNA, backbone and methylation of C not given here; hairpin) [DNA hairpin, 20-base single strand oligomer forming an intramolecular stem-loop hairpin, DNA standard molecule]” yielded a Tm [1] of 94.34±0.06 °C.

For `O=C(O)CCCC[C@@H]1SC[C@@H]2NC(=O)N[C@@H]21` [Biotin, biotin], the “Streptavidin + Biotin Tm” value [2, 7] was 79.96 ± 0.36 °C, the “Streptavidin + Biotin Tm” value [2, 8] was 79.17 ± 0.06 °C and the “Streptavidin + Biotin Tm” value [2, 9] was 80.71 ± 0.12 °C. The “Streptavidin + Biotin Tm” value [2, 10] was 81.16 ± 0.07 °C, the “shift up of streptavidin melting temperature with biotin” value ([2]; Conditions I-III) was 1-2 °C and the “shift in Tm for the dominant peak on addition of biotin” value [2, 11] was roughly 1 °C. For the same compound, the “temperature shift of streptavidin thermogram with biotin” value ([2]; in E. coli lysate at decreased concentrations) was 1.4 °C and 0.9 °C and the “reduction in peak height of streptavidin thermogram with biotin binding” value ([2]; streptavidin (1 mg/mL) + 2 molar equivalents biotin in buffer (FIG. 5D)) was 20%.

In the case of `C[C@H](CS)C(=O)N1CCC[C@H]1C(=O)O` [Captopril], the “binding to / effect on ACE2 from difference thermogram” value [3] is reported as “relatively lesser effect on ACE2”.

In the case of `NCCCC[C@H](N[C@@H](CCc1ccccc1)C(=O)O)C(=O)N1CCC[C@H]1C(=O)O` [Lisinopril], the “binding to ACE2 compared with captopril (docking)” value [4] is listed as “stronger binder to ACE2” and the “inhibiting COVID-19 infection” value [5] is listed as “ineffective”.

In the case of “ACE2: unpurified angiotensin converting enzyme 2 expressed in HEK293 cells, Gln18-Ser740, RayBiotech”, the “difference thermogram peak temperature (peak assigned to C-domain)” value [6, 12] is reported as 55.6 °C and the “difference thermogram peak temperature (peak assigned to N-domain)” value [6, 12] is reported as 70.6 °C.

With Streptavidin the “Streptavidin Tm” value [6, 7] was 79.03 ± 0.18 °C, the “Streptavidin Tm” value [6, 8] was 77.39 ± 0.05 °C and the “Streptavidin Tm” value [6, 9] was 79.82 ± 0.10 °C. The “Streptavidin Tm” value [6, 10] was 79.70 ± 0.02 °C, the “melting temperature of streptavidin without biotin” value ([6]; Conditions I-III) was “around 80 °C” and the streptavidin peak temperature [6, 11] was roughly 79 °C.

With “lysozyme: lysozyme, recombinant, expressed in rice” the Tm [1] was 64.77±0.16 °C.
